According to ChEMBL document CHEMBL1129814, “Synthesis of thiophenes and thieno[3,2-c]pyran-4-ones as antileishmanial and antifungal agents” (1997):
In brackets after ≈: the same amount, converted by molar mass.

Key:
Cryptococcus neoformans = test: Antifungal activity against Cryptococcus neoformans (CN-17); format: functional
Sporothrix schenckii = test: In vitro for antifungal activity against Sporothrix schenck ii (SS-1); format: functional
Trichophyton benhamiae = test: In vitro for antifungal activity against Trichophyton mentagrophytes (A-280); format: functional, Arthroderma benhamiae
Aspergillus fumigatus = test: Antifungal activity against Aspergillus fumigatus (AF-27); format: functional
Candida albicans = test: Antifungal activity against Candida albicans (SKF); format: functional
Leishmania donovani = test: An vitro anti-leishmanial activity against Leishmania donovani promastigotes (25 uM); format: functional

Compound	MIC (Cryptococcus neoformans) [µg/mL]	MIC (Sporothrix schenckii) [µg/mL]	MIC (Trichophyton benhamiae) [µg/mL]	MIC (Aspergillus fumigatus) [µg/mL]	MIC (Candida albicans) [µg/mL]	Growth inhibition (Leishmania donovani) [%]
CCOC(=O)c1sc(SC)c(C(=O)OCC)c1O	> 100	> 100	> 100	> 100	> 100	63
CCOC(=O)c1sc2cc(-c3cccc([N+](=O)[O-])c3)oc(=O)c2c1N	> 100	> 100	> 100	> 100	> 100	28
CCOC(=O)c1sc2cc(-c3ccc(Cl)cc3)oc(=O)c2c1N	> 100	> 100	> 100	> 100	> 100	24
CSc1cc(-c2ccc(Br)cc2)c(C(=O)O)s1	> 100	> 100	50 (≈ 152 µM)	> 100	> 100	100
CCOC(=O)c1sc(SC)cc1-c1ccc(Br)cc1	> 100	> 100	> 100	> 100	> 100	20
CCOC(=O)c1sc(SC)cc1-c1cccnc1	50 (≈ 179 µM)	25 (≈ 89.5 µM)	25 (≈ 89.5 µM)	50 (≈ 179 µM)	25 (≈ 89.5 µM)	25
CCOC(=O)c1sc(SC)cc1-c1ccccc1	> 100	> 100	> 100	> 100	> 100	30
CCOC(=O)c1sc2cc(-c3cccnc3)oc(=O)c2c1N	> 100	> 100	> 100	> 100	> 100	15
CCOC(=O)c1sc2cc(-c3cc(F)c(Cl)cc3Cl)oc(=O)c2c1N	> 100	> 100	> 100	> 100	> 100	70
CSc1cc(-c2ccc(Cl)cc2)c(C(=O)O)s1	> 100	> 100	> 100	> 100	> 100	30
CCOC(=O)c1sc(SC)cc1-c1ccc(F)cc1	> 100	> 100	> 100	> 100	> 100	95
CCOC(=O)c1sc2cc(-c3ccc([N+](=O)[O-])cc3)oc(=O)c2c1N	> 100	> 100	> 100	> 100	> 100	20
CCOC(=O)c1sc(SC)c(C#N)c1N	> 100	> 100	> 100	> 100	> 100	25
CCOC(=O)c1sc2cc(-c3ccc(F)cc3)oc(=O)c2c1N	> 100	> 100	> 100	> 100	> 100	30
CSc1cc(-c2cccnc2)c(C(=O)O)s1	> 100	> 100	> 100	> 100	> 100	25
CCOC(=O)c1sc(SC)cc1-c1ccc(C)cc1	> 100	> 100	> 100	> 100	> 100	100
CCOC(=O)c1sc2cc(-c3ccc(Br)cc3)oc(=O)c2c1N	> 100	> 100	> 100	> 100	> 100	8
CCOC(=O)c1sc(SC)cc1-c1ccc(Cl)cc1	> 100	> 100	> 100	> 100	> 100	55
CSc1cc(-c2ccc(C)cc2)c(C(=O)O)s1	> 100	> 100	> 100	> 100	> 100	10
CCOC(=O)c1sc2cc(-c3ccc(OC)cc3)oc(=O)c2c1N	> 100	> 100	> 100	> 100	> 100	10
CSc1cc(-c2ccc(F)cc2)c(C(=O)O)s1	> 100	> 100	50 (≈ 186 µM)	> 100	> 100	40
CCOC(=O)c1sc(SC)c(C(=O)OC)c1O	12.5 (≈ 45.2 µM)	12.5 (≈ 45.2 µM)	6.25 (≈ 22.6 µM)	25 (≈ 90.5 µM)	50 (≈ 181 µM)	95
CCOC(=O)c1sc(SC)c(C#N)c1O	> 100	> 100	50 (≈ 206 µM)	> 100	> 100	60
CC(=O)N1CCN(c2ccc(OC[C@H]3CO[C@](Cn4ccnc4)(c4ccc(Cl)cc4Cl)O3)cc2)CC1 [KETOCONAZOLE]	0.3 (≈ 0.565 µM)	0.1 (≈ 0.188 µM)	25 (≈ 47 µM)	0.7 (≈ 1.32 µM)	0.1 (≈ 0.188 µM)	
N=C(N)c1ccc(OCCCCCOc2ccc(C(=N)N)cc2)cc1 [PENTAMIDINE]						100
